Some test systems named below: TK-10; HCC 2998; SNB-19; UACC-257; CAKI-1; M14; COLO 205; MOLT-4; SK-OV-3; HCT-15; 786-0; SF-295; EKVX; OVCAR-4; NCI-H460; SF-539; Malme-3M; NCI-H23; SK-MEL-2.
Holding throughout (experiment): NCI-60 cell line screen, 48 h

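Grown in 96-well plates, cells were treated for 48 hours with each compound at five concentrations. Insufficient inhibition: endpoint recorded as highest concentration tested. GI50 marks 50% less growth.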 The source made the active and inactive calls. Rule as the data show it: active = GI50 up to about 1.1 µM and inactive = higher.

Regarding `O=C1C=CC2(CCCCCCC2=O)CC1` (stereo not given), the GI50 in the test on TK-10, with HCC 2998, with SNB-19, in the test with UACC-257, with CAKI-1 and with M14 was > 100 µM (inactive) throughout. Further, the GI50 was 57 µM (inactive) in the test on COLO 205; > 100 µM (inactive) in the test on MOLT-4; > 100 µM (inactive) in the test with SK-OV-3; greater than 100 µM with HCT-15; > 100 µM (inactive) in the test on 786-0; > 100 µM (inactive) with SF-295. Further, the GI50 in the test with EKVX, in the test with OVCAR-4, in the test with NCI-H460, with SF-539 and in the test on Malme-3M was > 100 µM (inactive) in each case.

On to `CN(C)c1ccc(/C=C(/C(=O)O)c2csc(-c3nc(/C(=C\c4ccc(N(C)C)cc4)C(=O)O)cs3)n2)cc1`, for which the GI50 with TK-10, in the test on NCI-H23, in the test on HCC 2998, with UACC-257, in the test with CAKI-1 and in the test on M14 was > 100 µM (inactive) each time. Besides, the GI50 is 93.3 µM (inactive) in the test with COLO 205; 58.6 µM (inactive) with MOLT-4; > 100 µM (inactive) in the test on SK-OV-3; 42.1 µM in the test with HCT-15; 46.2 µM (inactive) with 786-0; > 100 µM (inactive) in the test with SF-295. Moreover, the GI50 with EKVX, in the test on SK-MEL-2, in the test with NCI-H460, in the test on SF-539 and in the test with Malme-3M was > 100 µM (inactive) in each case.

Consider `O=C1C2CC=CCC2C(=O)C12CCc1ccccc12` (stereo not given), for which the GI50 in the test on TK-10, with NCI-H23, with HCC 2998, in the test on CAKI-1, in the test with M14 and in the test with COLO 205 was > 100 µM (inactive) each time. In addition, the GI50 is > 100 µM (inactive) in the test on SK-OV-3; greater than 100 µM with HCT-15; > 100 µM (inactive) in the test with 786-0; > 100 µM (inactive) in the test with SF-295; > 100 µM (inactive) in the test with EKVX; > 100 µM (inactive) in the test on OVCAR-4. Further, the GI50 with NCI-H460 and with Malme-3M was > 100 µM (inactive) throughout.

On to `OCC1OC2c3ccccc3COC2C1OCc1ccccc1` (stereo not given), for which the GI50 with TK-10 is > 100 µM (inactive); in the test with NCI-H23 it was 91.6 µM (inactive); in the test on HCC 2998 it was > 100 µM (inactive); in the test on SNB-19, > 100 µM (inactive); in the test with UACC-257, 37 µM (inactive); in the test on CAKI-1, 96.8 µM (inactive). Besides, the GI50 is > 100 µM (inactive) in the test with M14; > 100 µM (inactive) with COLO 205; > 100 µM (inactive) with MOLT-4; > 100 µM (inactive) with SK-OV-3; greater than 100 µM with HCT-15; > 100 µM (inactive) in the test on 786-0. The GI50 is 88.9 µM (inactive) in the test with SF-295; > 100 µM (inactive) in the test with EKVX; > 100 µM (inactive) in the test with SK-MEL-2; > 100 µM (inactive) with OVCAR-4; > 100 µM (inactive) in the test with NCI-H460; > 100 µM (inactive) in the test on Malme-3M.

Consider `CCOC(=O)C(CCC(N)=O)(CCC(=O)OC)C(=O)OCC`, for which the GI50 in the test on TK-10, in the test on NCI-H23, in the test with HCC 2998, with SNB-19, in the test on UACC-257 and in the test with CAKI-1 was > 100 µM (inactive) each time. Also, the GI50 in the test with M14, in the test on COLO 205, with MOLT-4, in the test with SK-OV-3, in the test with 786-0 and in the test on SF-295 was > 100 µM (inactive) each time. The GI50 in the test on EKVX, in the test on OVCAR-4, with NCI-H460, with SF-539 and in the test with Malme-3M was > 100 µM (inactive) each time.

Regarding `Cc1nc2nnnn2c2c1C(=O)Nc1ccccc1N2`, the GI50 in the test with TK-10, in the test on NCI-H23, in the test with HCC 2998, in the test on SNB-19, in the test with UACC-257 and with M14 was > 100 µM (inactive) each time. Besides, the GI50 in the test with COLO 205 was > 100 µM (inactive); in the test with MOLT-4, 43.2 µM (inactive); in the test with SK-OV-3, > 100 µM (inactive); in the test on 786-0 it was > 100 µM (inactive); in the test on SF-295, > 100 µM (inactive); with EKVX it was 79.8 µM (inactive). Also, the GI50 was > 100 µM (inactive) in the test on SK-MEL-2, 28.4 µM (inactive) in the test on NCI-H460, > 100 µM (inactive) in the test on SF-539 and > 100 µM (inactive) with Malme-3M.

For `Cc1cc(C2(O)C=C(C(C)(C)C)C(=O)C(C(C)(C)C)=C2)c(C)cc1C1(O)C=C(C(C)(C)C)C(=O)C(C(C)(C)C)=C1`, the GI50 with TK-10, with NCI-H23, with SNB-19, with UACC-257, in the test with CAKI-1 and with M14 was > 100 µM (inactive) throughout. The GI50 in the test on COLO 205 was > 100 µM (inactive); in the test with MOLT-4, > 100 µM (inactive); in the test on SK-OV-3, > 100 µM (inactive); in the test on HCT-15, greater than 100 µM; in the test with 786-0, > 100 µM (inactive); in the test with SF-295, > 100 µM (inactive). The GI50 in the test with EKVX, in the test on SK-MEL-2, in the test on OVCAR-4, with SF-539 and in the test on Malme-3M was > 100 µM (inactive) each time.

As to `CC(=O)O[C@H]1/C(=C/c2ccc(N(C)C)cc2)C[C@H]2[C@@H]3CC=C4C[C@@H](N5CCCC5)CC[C@]4(C)[C@H]3CC[C@]12C`, the GI50 with TK-10, with NCI-H23, in the test on SNB-19, in the test on UACC-257, with M14 and in the test with COLO 205 was > 100 µM (inactive) each time. Also, the GI50 in the test on MOLT-4 is > 100 µM (inactive); with SK-OV-3, > 100 µM (inactive); with HCT-15 it was greater than 100 µM; in the test with 786-0 it was > 100 µM (inactive); in the test on SF-295 it was > 100 µM (inactive); in the test on EKVX it was > 100 µM (inactive). In addition, the GI50 in the test on SK-MEL-2 is > 100 µM (inactive); in the test with NCI-H460, 61.9 µM (inactive); in the test on SF-539 it was > 100 µM (inactive); in the test on Malme-3M it was > 100 µM (inactive).

For `CCOC(=O)NC(=O)c1cn(CCN2CCN(C(=O)CNC(=O)CNC(=O)Cn3cc(C(=O)NC(=O)OCC)c(=O)[nH]c3=O)CC2)c(=O)[nH]c1=O`, the GI50 in the test on TK-10, with NCI-H23, with HCC 2998, in the test with SNB-19, in the test with UACC-257 and with CAKI-1 was > 100 µM (inactive) in each case. Also, the GI50 was > 100 µM (inactive) in the test with M14; > 100 µM (inactive) with COLO 205; > 100 µM (inactive) in the test with MOLT-4; > 100 µM (inactive) in the test on SK-OV-3; greater than 100 µM in the test on HCT-15; > 100 µM (inactive) in the test with 786-0. For the same compound, the GI50 in the test on SF-295, with SK-MEL-2, in the test on NCI-H460, in the test on SF-539 and with Malme-3M was > 100 µM (inactive) in each case.

For the compound `COC(=O)/C(=N\NC(N)=S)C(C#N)c1ccccc1` (stereo not given), the GI50 with TK-10, with NCI-H23, in the test on HCC 2998, in the test with SNB-19, in the test on UACC-257 and with M14 was > 100 µM (inactive) in each case. Further, the GI50 in the test on COLO 205 was > 100 µM (inactive); with MOLT-4, > 100 µM (inactive); in the test on SK-OV-3 it was > 100 µM (inactive); in the test on HCT-15, greater than 100 µM; in the test with 786-0, > 100 µM (inactive); with SF-295, > 100 µM (inactive). The GI50 with EKVX, with SK-MEL-2, in the test on OVCAR-4, in the test with NCI-H460, in the test with SF-539 and in the test with Malme-3M was > 100 µM (inactive) in each case.

With `Cn1c(=O)c2c(nc3n2CCC(=O)N3)n(C)c1=O`, the GI50 with TK-10, with NCI-H23, in the test with SNB-19, with UACC-257, in the test with CAKI-1 and with COLO 205 was > 100 µM (inactive) throughout. The GI50 in the test with MOLT-4, in the test with SK-OV-3, in the test on 786-0, in the test on SF-295, in the test with EKVX and in the test on SK-MEL-2 was > 100 µM (inactive) throughout. For the same compound, the GI50 in the test with OVCAR-4, in the test on NCI-H460, in the test with SF-539 and in the test with Malme-3M was > 100 µM (inactive) in each case.

As to `CCCCCCCCCCCCSC(=S)c1c(C)[nH]n(-c2ccccc2)c1=O`, the GI50 in the test on TK-10 was 22.2 µM (inactive); in the test on NCI-H23 it was 13.3 µM (inactive); in the test with HCC 2998, 5.36 µM (inactive); with SNB-19 it was 12.4 µM (inactive); in the test on UACC-257, 8.04 µM (inactive); in the test with CAKI-1, 19.1 µM (inactive). Besides, the GI50 in the test with M14 was 13.4 µM (inactive); in the test with COLO 205, 15.3 µM (inactive); in the test with MOLT-4 it was 6.61 µM (inactive); in the test with SK-OV-3 it was 16.3 µM (inactive); with HCT-15 it was 1.93 µM; in the test on 786-0, 15.6 µM (inactive). Besides, the GI50 is 12.5 µM (inactive) with SF-295; 19.1 µM (inactive) in the test with EKVX; 8.36 µM (inactive) in the test with OVCAR-4; 14.3 µM (inactive) in the test on SF-539; 10.7 µM (inactive) in the test with Malme-3M.

For the origin of these results see ChEMBL document CHEMBL1201862, “PubChem BioAssay data set” (2004).
